Measurements: paper PMC9249808, “A novel lipidic peptide with potential to promote balanced effector-regulatory T cell responses” (Scientific Reports, 2022)

Key:
[1] = system: CD4+ T cells within T cell cultures; experiment: Flow cytometry of CD4+ T cells within isolated CD3+ T cell cultures (anti-CD3/anti-CD28); format: cell-based, human; conditions: anti-CD3/anti-CD28, 72 h, MFI, Fig. 1b (IK14004), Fig. 1e (IK14000)
Description: CD3^+ T cells were isolated from PBMCs by negative selection using immune-magnetic separation (Stem cell kits), resuspended in complete medium as used for PBMCs at 0.5 × 10^6/mL and plated at a density of 5 × 10^4 per well (100 µL) in 96-well, flat bottom culture plates. CD4^+ and CD8^+ T cell populations were isolated by immunomagnetic separation and resuspended in RPMI-10 at 0.5 × 10^6/mL with a plating density of 0.5 × 10^5 per well. Either the lipidic peptide, IK14004, or IK14000 ([…]) was added to wells at a final volume of 50 µL per well, together with anti-CD3 anti-CD28 coated Dynabeads (ThermoFisher) at a 4:1 cell:bead ratio (1.25 × 10^4/well, 50 µL volume) and cells cultured for 72 h at 37 °C and 5% CO2. […]
For flow cytometry and ELISA experiments, data from IK14004 and vehicle groups were analysed using parametric statistical procedures. […]

[2] = system: CD4+ T cells within PBMC cultures; experiment: Intracellular IFN-γ in CD4+ T cells within PBMC cultures (flow cytometry); format: cell-based, human; conditions: anti-CD3, 24 h, MFI, n = 4, Fig. 5c
Description: PBMCs were resuspended in RPMI-10 (RPMI-1640; ThermoFisher) supplemented with 10% heat inactivated Foetal Bovine Serum (LabTech), 100 U/mL penicillin, 100 µg/mL streptomycin (ThermoFisher), 2 mM L-glutamine (ThermoFisher), and 50 µM β-mercaptoethanol (ThermoFisher) at 1 × 10^6 cells/mL and plated at a density of 1 × 10^5 per well (100 µL) in 96-well, flat-bottom culture plates. PBMCs were stimulated with 1 µg/mL of soluble anti-CD3 (BioLegend). The lipidic peptide, IK14004, and IK14000, i.e., […] minus conjugation to [{2}Adod]4, were solubilised as a 1 mM stock solution in sterile milliQ water (Lonza) and added to wells at a final volume of 50 µL per well together with soluble anti-CD3 (1 µg/mL final, 50 µL per well) (Biolegend). To test the effect of peptides, cells were cultured for 24–72 h at 37 °C and 5% CO2. Vehicle controls in peptide-based experiments comprised 0.13% sterile milliQ water in culture medium whereas 0.1% DMSO in culture medium was used as vehicle control for comparison with the Lck inhibitor, A-770041, in the absence of peptides. […]

Lck = experiment: Kinase profiling, Lck; format: biochemical; conditions: Eurofins KinaseProfiler, [γ-33P-ATP] scintillation, 0.003-10 uM, 2% DMSO, no pre-incubation, Fig. 6c, 6e
Description: Non-cell-based kinase profiling assays were performed by Eurofins (France). All compounds were prepared to 50 × final assay concentration in 100% DMSO. This working stock of the compound was added to assay wells as the first component in the reaction, followed by the remaining components as detailed in the specific assay protocols below. In the standard KinaseProfiler service, there was no pre-incubation step between the compound and the kinase prior to initiation of the reaction. Control wells contained all components of the reaction, except the compound of interest; however, DMSO (at a final concentration of 2%) was included in these wells to control for solvent effects. […] The reference inhibitors for each kinase are indicated in the methods for each kinase assay. […] Kinase activities were assessed in the presence of compounds at a concentration range of 0.003 -10 uM and the following kinases were tested: c-Src, Lck, Jak1, Jak2, Tyk2, CaMKIV and HPK1 (MAP4K1). Reactions between IK14004, substrates and MgAcetate/[γ^33P-ATP] mixes for each respective kinase were stopped by the addition of phosphoric acid and reaction mixtures spotted on P30 filtermats for scintillation according to the detailed methods available from Eurofins. The activities of Lck and c-Src were also assessed in the presence of the unconjugated components of IK14004, i.e., […] (IK14000) and the dodecanoic acid moiety [(2)Adod]4 (IK00041) and a lipidic peptide containing substituted amino acid residues (IK14DE04).

Sequence: RSKAKNPLYR [IK14000]
- CD25 expression in CD4+ T cells [1]: decrease in CD25 expression in CD4+ T cells at higher concentrations
- intracellular expression of IFN-γ in CD4+ T cells [2]: unchanged
- Lck activity (Lck): neither IK14000 nor IK00041 had an effect
